From US10329243B2, “Biphenyl derivative and uses thereof” (XI'AN LIBANG PHARMACEUTICAL CO., LTD, priority 2015, dated 2019)

Key:
Format in all cases: in vivo, SD rats
[1] = test system: rats with cerebral ischemic reperfusion injury; test: Relative infarct volume (TTC, imageJ), cerebral ischemic reperfusion MCAO model; settings: ischemic reperfusion MCAO rats; 40 mg/kg intravenously 30 min before and 12 h after reperfusion; 24 h after reperfusion
Protocol: (§1) Rats were intraperitoneally injected with 10% chloral hydrate 350 mg/kg after anesthesia and opened up at the center of the neck in accordance with the Zea Longa modified method. The right common carotid artery was separated, and the right external carotid artery branches was ligated. A small opening was made at the distal end of the external carotid artery, and a previously prepared thread was inserted through the common carotid artery and the external carotid artery bifurcation into the internal carotid artery, till the anterior end of the middle cerebral artery, with an immersed depth of 18 to 19 mm. The thread was then secured, and the wound was sutured layer by layer. After the operation, the rats were placed in a clean incubator to wake up. […] The sham operation group, the ischemic reperfusion group, and the Example groups were prepared strictly according to the requirements of the cerebral ischemic reperfusion model, while in the sham operation group the thread was put only into the external carotid artery. The animals were allowed to eat and drink freely after waking up. After 2 h, the thread was pulled out to achieve reperfusion. The sham operation group, the ischemic reperfusion group, and the Example groups were administered intravenously the aqueous solution of the biphenyl derivatives in PEG400 at 40 mg/kg (40 mg/kg means that 40 mg of the test compound per kg of the body weight of rats) 30 min before reperfusion and 12 h after reperfusion, respectively. The sham operation group and the ischemic reperfusion group were injected with the same amount of blank PEG400 aqueous solution at the same time point.
(§2) 24 hours after reperfusion, 8 rats in each group were sacrificed by decapitation, the brain was removed, rinsed with PBS (pH 7.4) at −20° i for 20 min, evenly sliced (with a thickness of 2 mm), stained in a 2% TTC solution at 37°% in the dark for 30 min, fixed in 10% formalin for 24 h, and photographs were taken to analyze the infarct volume. A mixture of femoral arterial and venous blood was drawn from another 8 rats in each group under anesthesia, placed in a low temperature centrifuge at 4° C., centrifuged at 3500 r/min for 20 min, and the supernatant was stored in a refrigerator at −20° C. ready for SOD and MDA detection. After the blood was drawn, a perfusion needle was insert through the apex to the ascending aorta, and saline at 4° C. was rapid infused until the effluent became clear, followed by 4% paraformaldehyde phosphate buffer perfusion for fixation; the brain was removed by craniotomy, and brain tissues 2 mm in front of and behind the optic chiasma were taken and fixed, dehydrated, rendered transparent, impregnated in wax, and embedded. Brain continuous coronary tissue pathological sections were consecutively cut for later use. The remaining 8 rats in each group were sacrificed, brains were removed, the ischemic brain hemispheres were immediately taken on an ice tray, and 10% brain tissue homogenate was prepared for the detection of IL-1β and TNF-α.
The infarct area in each brain section was analyzed and quantified by the imageJ image software, and the ratio of cerebral infarction volume in the overall brain volume was calculated.

[2] = test system: SOD; test: SOD determination, cerebral ischemic reperfusion MCAO model; settings: ischemic reperfusion MCAO rats; 40 mg/kg intravenously 30 min before and 12 h after reperfusion; serum, 24 h after reperfusion
Protocol: as §1, §2
(§3) SOD and MDA were determined strictly in accordance with instructions of the kit.

[3] = test system: IL-1β; test: Determination of IL-1β in brain tissue homogenate, cerebral ischemic reperfusion MCAO model; settings: ischemic reperfusion MCAO rats; 40 mg/kg intravenously; 10% brain tissue homogenate, 24 h after reperfusion
Protocol: as §1, §2
(§4) Brain tissue homogenate was hypothermally centrifuged at 3000 rpm for 15 min, the supernatant was taken, and IL-1β and TNF-α were determined in strict accordance with instructions of the kits.

[4] = test system: TNF-α; test: Determination of TNF-α in brain tissue homogenate, cerebral ischemic reperfusion MCAO model; settings: ischemic reperfusion MCAO rats; 40 mg/kg intravenously; 10% brain tissue homogenate, 24 h after reperfusion
Protocol: as §1, §2, §4

[5] = test system: SOD; test: SOD determination, permanent cerebral ischemia model; settings: permanent cerebral ischemia model rats; 40 mg/kg intravenously; serum, 24 h after the embolism
Protocol: as §1, with “the permanent cerebral ischemia model” for “the ischemic reperfusion”, “up.” for “up. After 2 h, the thread was pulled out to achieve reperfusion.”, “before insertion of thread” for “before reperfusion”, “after embolism,” for “after reperfusion,”
as §2, with “the embolism,” for “reperfusion,”, “−20°i” for “−20° i”
as §3

[6] = test system: IL-1β; test: Determination of IL-1β in brain tissue homogenate, permanent cerebral ischemia model; settings: permanent cerebral ischemia model rats; 40 mg/kg intravenously; 10% brain tissue homogenate, 24 h after the embolism
Protocol: as §1, with “the permanent cerebral ischemia model” for “the ischemic reperfusion”, “up.” for “up. After 2 h, the thread was pulled out to achieve reperfusion.”, “before insertion of thread” for “before reperfusion”, “after embolism,” for “after reperfusion,”
as §2, with “the embolism,” for “reperfusion,”, “−20°i” for “−20° i”
as §4

[7] = test system: TNF-α; test: Determination of TNF-α in brain tissue homogenate, permanent cerebral ischemia model; settings: permanent cerebral ischemia model rats; 40 mg/kg intravenously; 10% brain tissue homogenate, 24 h after the embolism
Protocol: as §1, with “the permanent cerebral ischemia model” for “the ischemic reperfusion”, “up.” for “up. After 2 h, the thread was pulled out to achieve reperfusion.”, “before insertion of thread” for “before reperfusion”, “after embolism,” for “after reperfusion,”
as §2, with “the embolism,” for “reperfusion,”, “−20°i” for “−20° i”
as §4

CC(=O)Oc1c(C(C)C)cc(-c2cc(C(C)C)c(OC(C)=O)c(C(C)C)c2)cc1C(C)C [Example 2 group, 3,3′,5,5′-tetraisopropylbiphenyl-4′-diacetate]
Relative Brain infarction volume (%) [1]: 23.22 ± 3.12 % | SOD ACTIVITY (U/mL) [2]: 94.46 ± 2.19 U/mL | IL-1β content [3]: 0.79 ± 0.11 ng/mL | TNF-α content [4]: 5.03 ± 0.59 ng/mL | SOD ACTIVITY (U/mL) [5]: 93.28 ± 3.49 U/mL | IL-1β content [6]: 0.78 ± 0.12 ng/mL | TNF-α content [7]: 5.15 ± 0.88 ng/mL
